Measured values published in patent publication US11998602B2, “Methods for promoting myelination and for treating demyelinating diseases” (The Scripps Research Institute, priority 2018, dated 2024).

Key:
[1] = tested on: primary mouse cortical neurons co-cultured with OPCs; assay: In vitro OL maturation assay, MBP-colocalization with co-cultured axons; type: cell-based, rat
Protocol: In vitro OL maturation assay. Cortical and hippocampal tissue was dissected from C57BL/6 mice at embryonic day 14 and dissociated in 0.5% Trypsin with 100 U/mL DNase I diluted in HBSS (+/+) for 10 min at 37° C. Reaction was stopped by supplementing to a final concentration of 10% v/v FBS, 100 μg/mL Soybean Trypsin Inhibitor and 10 U/mL DNase I. Cells were resuspended in plating media consisting of equal volumes of FCS, HBSS (+/+), High-Glucose DMEM with L-glutamine, and F-12 with L-glutamine, then plated onto acid pre-washed German glass coverslips coated with 50 μg/mL Poly-D-Lysine and 20 μg/mL Laminin at a density of 50,000 cells/cm^2. Cells were allowed to attach for 2 hrs and then coverslips were rinsed with PBS before being transferred to a 24-well plate containing 0.5 mL growth media consisting of: Neurobasal medium, B27 supplement (Gibco), 0.5× Glutamax (Thermo), 5 μg/mL gentamycin and 5 μM glutamic acid. Half of the cell media was replaced after 3 DIV with supplemental growth media not containing glutamic acid^47. After 5 DIV, rat-derived cortical OPCs were added to the neuronal culture at a density of 5,000 cells/cm^2. Co-culture media used to resuspend and plate OPCs consisting of a 1:3 mixture of neuronal growth supplement (as above) and oligodendrocyte differentiation media, containing DMEM/F-12 (with L-glutamine), insulin-free N2 supplement, 1× Glutamax, 1×MEM non-essential amino acids, 1× β-mercaptoethanol, 2 ng/mL PDGF and 5 μg/mL gentamycin. All drugs and taurine co-treatment were added once to culture upon plating of OPCs at the following concentrations: 0.5 μM benztropine, 1.0 μM miconazole, each with or without 2 mM taurine. Cultures were maintained by replacing half of the media every three days, maintaining an equivalent concentration of taurine throughout in appropriate wells. […] Co-localization was quantified within regions of interest delineated as the periphery of individual oligodendrocytes. The co-localization index (adapted from a previously described method^48) was calculated as total proportion of co-localized 3D surface area between Tuj1 (neuron) and oligodendrocyte (MBP) over total Tuj1 (neuronal process) area enclosed within each oligodendrocyte process tree as the selected region of interest (ROI, see FIG. 3B″). Mean colocalization values for each condition were normalized to the DMSO condition mean analyzed statistically using Prism software (GraphPad, v7) for two-way ANOVA comparisons (Drug Treatment×Taurine Supplement) with Tukey post-tests for statistical significance. […]

OPCs = assay: Caspase-Glo 3/7 and Cell Titer Glo assays of apoptosis and survival during differentiation; type: cell-based, rat
Protocol: Detection of caspase 3/7. In poly-D-lysine-coated white 96-well plates (Greiner), cells were seeded at 5,000 cells per well. Taurine (20 mM) was added on days 0 or 3, alone and in combination with benztropine (0.5 μM), miconazole (2 μM), T3 (1 μM) or Staurosporine (1 μM) added on day 0. The Caspase-Glo 3/7 Assay (Promega) was utilized to quantify caspase-3/7 activity 6, 24 and 48 h after drug and taurine addition on day 0. Caspase-3/7 activity was also measured 24, 48 and 72 h (days 4, 5 and 6) after taurine addition on day 3.

Which results are given for `NCCS(=O)(=O)O` [taurine, 2-aminoethanesulfonic acid]?
MBP-colocalization with axons, treatment alone vs. DMSO (Tukey post hoc) ([1]; 0.5 μM benztropine, 1.0 μM miconazole or 2 mM taurine alone, 14 days): no significant difference; Index of MBP-colocalization with axons ([1]; 2 mM taurine in cultures treated with benztropine or miconazole, 14 days of neuron-OPC co-culture): significantly increase; Apoptosis in OPCs treated with staurosporine (OPCs; 20 mM taurine with 1 μM staurosporine (apoptosis inducer)): significantly inhibit; Caspase 3/7 activation (OPCs; 24 hours after taurine addition at day 0 or day 3, 1 μM T3, 0.5 μM benztropine or 2 μM miconazole): decrease; Apoptosis or survival under basal differentiation conditions (OPCs; DMSO vehicle): not found to impact
